In brackets after ≈: the same amount, converted by molar mass. Activity calls are given as the source filed them. The rule behind the calls is not given here.

The subject of the first test is C6. As to the kind of experiment: Cytotoxicity against rat C6 cells assessed as cell viability at 6 ug/ml after 24 hrs by MTT assay relative to control. The format is functional. Particulars: C6, 24 h, read-out: Activity.
In the case of `Cc1nnc(SCC(=O)N/N=c2/scc(-c3ccc(Cl)cc3)n2-c2ccccc2)s1`, the viability at 6 µg/mL was found to be 82.8%.

Consider `Cn1nnnc1SCC(=O)N/N=c1/scc(-c2ccc(C#N)cc2)n1-c1ccccc1`, for which the viability at 6 µg/mL was determined as 63.5%.

Another test concerns Aspergillus ochraceus. As to the kind of experiment: Antimicrobial activity against Aspergillus ochraceus NRRL 3174 after 48 to 72 hrs by microbroth dilution method. The format is functional.
Conditions: not given
On the technique in general: In broth dilution the organism is exposed to a series of concentrations in liquid medium.
For `Cc1nnc(SCC(=O)N/N=c2/scc(-c3ccc(Cl)cc3)n2-c2ccccc2)s1`, the MIC (commonly the lowest concentration that inhibits growth of the organism) is 250 µg/mL (≈ 527 µM).

In the case of `Cn1nnnc1SCC(=O)N/N=c1/scc(-c2ccc(C#N)cc2)n1-c1ccccc1`, the lowest concentration to inhibit growth (MIC) was 250 µg/mL (≈ 557 µM).

The next test concerns Pseudomonas aeruginosa. As to the kind of experiment: Antimicrobial activity against Pseudomonas aeruginosa […] after 18 to 24 hrs by microbroth dilution method. The format is functional.
Conditions: not given
In the case of `Cc1nnc(SCC(=O)N/N=c2/scc(-c3ccc(Cl)cc3)n2-c2ccccc2)s1`, the MIC came out at 250 µg/mL (≈ 527 µM).

Compound `Cn1nnnc1SCC(=O)N/N=c1/scc(-c2ccc(C#N)cc2)n1-c1ccccc1` came in with an MIC of 250 µg/mL (≈ 557 µM).

The subject of the next test is C6. As to the kind of experiment: Cytotoxicity against rat C6 cells assessed as cell viability at 12 ug/ml after 24 hrs by MTT assay relative to control. It is filed as functional. Particulars: C6, 24 h, read-out: Activity.
As to `Cc1nnc(SCC(=O)N/N=c2/scc(-c3ccc(Cl)cc3)n2-c2ccccc2)s1`, the viability at 12 µg/mL was 76.6%.

With `Cn1nnnc1SCC(=O)N/N=c1/scc(-c2ccc(C#N)cc2)n1-c1ccccc1`, the viability at 12 µg/mL amounted to 53.9%.

In a further test the test system is Aspergillus parasiticus. As to the kind of experiment: Antimicrobial activity against Aspergillus parasiticus NRRL 465 after 48 to 72 hrs by microbroth dilution method. The format is functional.
Conditions: not given
For the compound `Cc1nnc(SCC(=O)N/N=c2/scc(-c3ccc(Cl)cc3)n2-c2ccccc2)s1`, the MIC turned out to be 250 µg/mL (≈ 527 µM).

Take `Cn1nnnc1SCC(=O)N/N=c1/scc(-c2ccc(C#N)cc2)n1-c1ccccc1`: the MIC worked out at 250 µg/mL (≈ 557 µM).

For a further test, the system named is Trichoderma harzianum. As to the kind of experiment: Antimicrobial activity against Trichoderma harzianum NRRL 20565 after 48 to 72 hrs by microbroth dilution method. The format is functional.
Conditions: not given
`Cc1nnc(SCC(=O)N/N=c2/scc(-c3ccc(Cl)cc3)n2-c2ccccc2)s1`: it took 125 µg/mL (≈ 264 µM) to inhibit growth (MIC).

`Cn1nnnc1SCC(=O)N/N=c1/scc(-c2ccc(C#N)cc2)n1-c1ccccc1` yielded an MIC of 125 µg/mL (≈ 279 µM).

In a further test the test system is C6. As to the kind of experiment: Cytotoxicity against rat C6 cells assessed as cell viability at 100 ug/ml after 24 hrs by MTT assay relative to control. The format is functional. The following applies: C6, 24 h, read-out: Activity.
With `Cc1nnc(SCC(=O)N/N=c2/scc(-c3ccc(Cl)cc3)n2-c2ccccc2)s1`, the viability at 100 µg/mL was found to be 34.1%.

`Cn1nnnc1SCC(=O)N/N=c1/scc(-c2ccc(C#N)cc2)n1-c1ccccc1`: the viability at 100 µg/mL was 30.9%.

The subject of another test is C6. As to the kind of experiment: Cytotoxicity against rat C6 cells assessed as cell viability at 200 ug/ml after 24 hrs by MTT assay relative to control. It is filed as functional. The following applies: C6, 24 h, read-out: Activity. In general terms: Tetrazolium assays rely on reduction of a dye to a coloured formazan, in cell work by metabolically active cells.
For the compound `Cc1nnc(SCC(=O)N/N=c2/scc(-c3ccc(Cl)cc3)n2-c2ccccc2)s1`, the viability at 200 µg/mL came out at 29%.

Consider `Cn1nnnc1SCC(=O)N/N=c1/scc(-c2ccc(C#N)cc2)n1-c1ccccc1`, for which the viability at 200 µg/mL came out at 28.6%.

Another test concerns C6. As to the kind of experiment: Cytotoxicity against rat C6 cells after 24 hrs by MTT assay. Particulars: C6, 24 h. It is filed as functional, cell-based.
Consider `Cc1nnc(SCC(=O)N/N=c2/scc(-c3ccc(Cl)cc3)n2-c2ccccc2)s1`, for which half-maximal inhibition (IC50) was put at 28 µg/mL (≈ 59.1 µM).

As to `Cn1nnnc1SCC(=O)N/N=c1/scc(-c2ccc(C#N)cc2)n1-c1ccccc1`, the midpoint of inhibition, the IC50, lay at 23.3 µg/mL (≈ 51.9 µM).

The next test deals with Listeria monocytogenes. As to the kind of experiment: Antimicrobial activity against Listeria monocytogenes ATCC 7644 after 18 to 24 hrs by microbroth dilution method. It is filed as functional.
Conditions: not given
Take `Cc1nnc(SCC(=O)N/N=c2/scc(-c3ccc(Cl)cc3)n2-c2ccccc2)s1`: the MIC turned out to be 250 µg/mL (≈ 527 µM).

As to `Cn1nnnc1SCC(=O)N/N=c1/scc(-c2ccc(C#N)cc2)n1-c1ccccc1`, 250 µg/mL (≈ 557 µM) was the least that counted as inhibitory (MIC).

In another test the test system is Fusarium solani. As to the kind of experiment: Antimicrobial activity against Fusarium solani NRRL 13414 after 48 to 72 hrs by microbroth dilution method. The format is functional.
Conditions: not given
In the case of `Cc1nnc(SCC(=O)N/N=c2/scc(-c3ccc(Cl)cc3)n2-c2ccccc2)s1`, the lowest concentration to inhibit growth (MIC) was 250 µg/mL (≈ 527 µM).

`Cn1nnnc1SCC(=O)N/N=c1/scc(-c2ccc(C#N)cc2)n1-c1ccccc1` had an MIC of 250 µg/mL (≈ 557 µM).

A further test deals with C6. As to the kind of experiment: Cytotoxicity against rat C6 cells assessed as cell viability at 50 ug/ml after 24 hrs by MTT assay relative to control. It is filed as functional. Particulars: C6, 24 h, read-out: Activity.
As for `Cc1nnc(SCC(=O)N/N=c2/scc(-c3ccc(Cl)cc3)n2-c2ccccc2)s1`, the viability at 50 µg/mL was 37.9%.

For `Cn1nnnc1SCC(=O)N/N=c1/scc(-c2ccc(C#N)cc2)n1-c1ccccc1`, the viability at 50 µg/mL was 35.6%.

The test system of another test is Penicillium chrysogenum. As to the kind of experiment: Antimicrobial activity against Penicillium chrysogenum NRRL 1951 after 48 to 72 hrs by microbroth dilution method. The format is functional.
Conditions: not given
Take `Cc1nnc(SCC(=O)N/N=c2/scc(-c3ccc(Cl)cc3)n2-c2ccccc2)s1`: the MIC was 250 µg/mL (≈ 527 µM).

Turning to `Cn1nnnc1SCC(=O)N/N=c1/scc(-c2ccc(C#N)cc2)n1-c1ccccc1`, the MIC came to 250 µg/mL (≈ 557 µM).

A further test concerns C6. As to the kind of experiment: Inhibition of DNA synthesis in rat C6 cells assessed as BrdU incorporation after 24 hrs by ELISA. It is filed as functional, cell-based.
Conditions: not given
(Incorporation of labelled thymidine or its analogues reports DNA synthesis.)
For the compound `Cc1nnc(SCC(=O)N/N=c2/scc(-c3ccc(Cl)cc3)n2-c2ccccc2)s1`, the inhibition result is “Dose-dependent effect”.

Take `Cn1nnnc1SCC(=O)N/N=c1/scc(-c2ccc(C#N)cc2)n1-c1ccccc1`: the inhibition result was “Dose-dependent effect”.

The next test has as its system Escherichia coli. As to the kind of experiment: Antimicrobial activity against Escherichia coli ATCC 25922 after 18 to 24 hrs by microbroth dilution method. The format is functional.
Conditions: not given
For the compound `Cc1nnc(SCC(=O)N/N=c2/scc(-c3ccc(Cl)cc3)n2-c2ccccc2)s1`, the MIC amounted to 250 µg/mL (≈ 527 µM).

`Cn1nnnc1SCC(=O)N/N=c1/scc(-c2ccc(C#N)cc2)n1-c1ccccc1` gave an MIC of 250 µg/mL (≈ 557 µM).

A further test deals with C6. As to the kind of experiment: Cytotoxicity against rat C6 cells assessed as cell viability at 25 ug/ml after 24 hrs by MTT assay relative to control. It is filed as functional. Particulars: C6, 24 h, read-out: Activity.
For `Cc1nnc(SCC(=O)N/N=c2/scc(-c3ccc(Cl)cc3)n2-c2ccccc2)s1`, the viability at 25 µg/mL was 53.3%.

Turning to `Cn1nnnc1SCC(=O)N/N=c1/scc(-c2ccc(C#N)cc2)n1-c1ccccc1`, the viability at 25 µg/mL came out at 43.9%.

Another test concerns Candida albicans. As to the kind of experiment: Antimicrobial activity against Candida albicans ATCC 22019 after 18 to 24 hrs by microbroth dilution method. It is filed as functional.
Conditions: not given
`Cc1nnc(SCC(=O)N/N=c2/scc(-c3ccc(Cl)cc3)n2-c2ccccc2)s1` displayed an MIC of 250 µg/mL (≈ 527 µM).

Turning to `Cn1nnnc1SCC(=O)N/N=c1/scc(-c2ccc(C#N)cc2)n1-c1ccccc1`, it took 250 µg/mL (≈ 557 µM) to inhibit growth (MIC).

Another test relates to Bacillus subtilis. As to the kind of experiment: Antimicrobial activity against Bacillus subtilis NRS-744 after 18 to 24 hrs by microbroth dilution method. The format is functional.
Conditions: not given
Turning to `Cc1nnc(SCC(=O)N/N=c2/scc(-c3ccc(Cl)cc3)n2-c2ccccc2)s1`, the MIC was determined as 250 µg/mL (≈ 527 µM).

Compound `Cn1nnnc1SCC(=O)N/N=c1/scc(-c2ccc(C#N)cc2)n1-c1ccccc1` showed an MIC of 500 µg/mL (≈ 1110 µM).

The test system of the next test is Fusarium verticillioides. As to the kind of experiment: Antimicrobial activity against Fusarium moniliforme NRRL 1866 after 48 to 72 hrs by microbroth dilution method. The format is functional.
Conditions: not given
In turn, `Cc1nnc(SCC(=O)N/N=c2/scc(-c3ccc(Cl)cc3)n2-c2ccccc2)s1` gave an MIC of 250 µg/mL (≈ 527 µM).

`Cn1nnnc1SCC(=O)N/N=c1/scc(-c2ccc(C#N)cc2)n1-c1ccccc1` showed an MIC of 250 µg/mL (≈ 557 µM).

The subject of another test is C6. As to the kind of experiment: Inhibition of DNA synthesis in rat C6 cells assessed as BrdU incorporation at IC50 after 24 hrs by ELISA. It is filed as functional, cell-based.
Conditions: not given
For `Cc1nnc(SCC(=O)N/N=c2/scc(-c3ccc(Cl)cc3)n2-c2ccccc2)s1`, the inhibition result is “Active”.

`Cn1nnnc1SCC(=O)N/N=c1/scc(-c2ccc(C#N)cc2)n1-c1ccccc1`: the inhibition entry is “Active”.

In the next test the test system is Staphylococcus aureus. As to the kind of experiment: Antimicrobial activity against Staphylococcus aureus NRRL B-767 after 18 to 24 hrs by microbroth dilution method. It is filed as functional.
Conditions: not given
`Cc1nnc(SCC(=O)N/N=c2/scc(-c3ccc(Cl)cc3)n2-c2ccccc2)s1` came in with an MIC of 250 µg/mL (≈ 527 µM).

In turn, `Cn1nnnc1SCC(=O)N/N=c1/scc(-c2ccc(C#N)cc2)n1-c1ccccc1` showed an MIC of 250 µg/mL (≈ 557 µM).

The test system of another test is NIH3T3. As to the kind of experiment: Cytotoxicity against mouse NIH/3T3 cells after 24 hrs by MTT assay. The following applies: NIH3T3, 24 h. It is filed as cell-based.
With `Cc1nnc(SCC(=O)N/N=c2/scc(-c3ccc(Cl)cc3)n2-c2ccccc2)s1`, inhibition was half-maximal at 253 µg/mL (≈ 534 µM) (IC50).

In the case of `Cn1nnnc1SCC(=O)N/N=c1/scc(-c2ccc(C#N)cc2)n1-c1ccccc1`, half-maximal inhibition (IC50) was put at 213 µg/mL (≈ 476 µM).

A further test deals with Fusarium culmorum. As to the kind of experiment: Antimicrobial activity against wild type Fusarium culmorum after 48 to 72 hrs by microbroth dilution method. It is filed as functional.
Conditions: not given
As to `Cc1nnc(SCC(=O)N/N=c2/scc(-c3ccc(Cl)cc3)n2-c2ccccc2)s1`, it took 250 µg/mL (≈ 527 µM) to inhibit growth (MIC).

`Cn1nnnc1SCC(=O)N/N=c1/scc(-c2ccc(C#N)cc2)n1-c1ccccc1` had an MIC of 250 µg/mL (≈ 557 µM).

In another test the test system is Micrococcus luteus. As to the kind of experiment: Antimicrobial activity against Micrococcus luteus NRLL B-4375 after 18 to 24 hrs by microbroth dilution method.
Conditions: not given
It is filed as functional.
`Cc1nnc(SCC(=O)N/N=c2/scc(-c3ccc(Cl)cc3)n2-c2ccccc2)s1`: it took 250 µg/mL (≈ 527 µM) to inhibit growth (MIC).

On to `Cn1nnnc1SCC(=O)N/N=c1/scc(-c2ccc(C#N)cc2)n1-c1ccccc1`, for which inhibition of growth (MIC) required 250 µg/mL (≈ 557 µM).

The record behind these values is ChEMBL document CHEMBL3124777, “Synthesis and biological evaluation of thiazoline derivatives as new antimicrobial and anticancer agents” (Eur J Med Chem, 2014).
